# From US6458846B1, “Ion channel modulating agents” (Neurosearch A/S, priority 1998, dated 2002)
# Structures can show the parent of a compound that is named as a salt.
row,melting point,Compound
1,64 to 69 °C,"ON=Cc1ccc(Cl)c(Cl)c1OCc1ccccc1 (as salt: HCl) [Compound 1e, O-Benzyl 2-formyl-5,6-dichlorophenol oxime]"
2,82 to 83 °C,"COc1c(C=NO)ccc(Cl)c1Cl (as salt: HCl) [Compound 1f, O-Methyl 2-formyl-5,6-dichlorophenol oxime]"
3,99 to 100 °C,"CC(=O)c1ccccc1NC(C)=NO [Compound 1i, N-(2-acetylphenyl)acetamide oxime]"
